The text below walks through data of patent US20090111820A1, “FUSED PYRROLIDINE 1,2,4-TRIAZOLE DERIVATIVES AS MODULATORS OF MGLUR5” (priority 2007, published 2009).

One data set deals with T1, human mGluR5d (Homo sapiens, UniProt P41594).
T1 construct: expressed in transfected cells; It is kept under hygromycin B and Zeocin selection; The separate IP3 assay names GHEK cells
Description: FLIPR assay, mGluR5 antagonism (intracellular calcium mobilization). Type of data set: cell-based. The conditions noted are these: cells expressing human mGluR5d; fluo-3 calcium signal; read-out: FLIPR hmGluR5d. The source says: Functional Assessment of mGluR5 Antagonism in Cell Lines Expressing mGluR5D
The properties of the compounds of the invention can be analyzed using standard assays for pharmacological activity. Examples of glutamate receptor assays are well known in the art as described in for example Aramori et al., Neuron 8:757 (1992), Tanabe et al., Neuron 8:169 (1992), Miller et al., J. Neuroscience 15: 6103 (1995), Balazs, et al., J. Neurochemistry 69:151 (1997). The methodology described in these publications is incorporated herein by reference. Conveniently, the compounds of the invention can be studied by means of an assay (FLIPR) that measures the mobilization of intracellular calcium, [Ca^2+], in cells expressing mGluR5 or another assay (IP3) that measures inositol phosphate turnover.
Cells expressing human mGluR5d as described in WO97/05252 cultured in a mixture of high glucose DMEM with Glutamax (31966-021) (500 mL), 10% dialyzed fetal bovine serum (Hyclone #SH30079.03) (56 mL), 200 μg/mL Hygromycin B (Invitrogen 45-0430, 50 mg/mL)(2.2 mL), 200 μg/mL Zeocin (Invitrogen #R250-01; 100 mg/mL)(1.1 mL) are seeded at a density of 100,000 cells per well on collagen coated clear bottom 96-well plates with black sides and cells were allowed to adhere over night before experiments. All assays are done in a buffer containing 146 mM NaCl, 5 mM KCl, 1 mM MgCl2, 1 mM CaCl2, 20 mM HEPES, 1 mg/mL glucose and 1 mg/mL BSA Fraction IV (pH 7.4). Cell cultures in the 96-well plates are loaded for 60 minutes in the above mentioned buffer containing 6 μM of the acetoxymethyl ester form of the fluorescent calcium indicator fluo-3 (Molecular Probes, Eugene, Oreg.) in 0.025% pluronic acid (a proprietary, non-ionic surfactant polyol -CAS Number 9003-11-6). Following the loading period the fluo-3buffer is removed and replaced with fresh assay buffer. FLIPR experiments are done using a laser setting of 0.700 W and a 0.4 second CCD camera shutter speed with excitation and emission wavelengths of 488 nm and 562 nm, respectively. Each experiment is initiated with 160 μl of buffer present in each well of the cell plate. A 40 μl addition from the antagonist plate was followed by a 50 μL addition from the agonist plate. A 30 minutes, in dark at 25° C., interval separates the antagonist and agonist additions. The fluorescence signal is sampled 50 times at 1-second intervals followed by 3 samples at 5-second intervals immediately after each of the two additions. Responses are measured as the difference between the peak heights of the response to agonist, less the background fluorescence within the sample period. IC50 determinations are made using a linear least squares fitting program.
A general note: Calcium assays in cells follow changes in intracellular calcium, usually with a dye or a luminescent sensor.

A short description of data set [1]: Determination of brain to plasma ratio in rat. The conditions noted are these: brain and plasma, female Sprague Dawley rats, read-out: Brain/Plasma Ratio of compound in Rat. Type of data set: in vivo. The procedure:
Determination of Brain to Plasma Ratio in Rat
Brain to plasma ratios are estimated in female Sprague Dawley rats. The compound is dissolved in water or another appropriate vehicle. For determination of brain to plasma ratio the compound is administrated as a subcutaneous, or an intravenous bolus injection, or an intravenous infusion, or an oral administration. At a predetermined time point after the administration a blood sample is taken with cardiac puncture. The rat is terminated by cutting the heart open, and the brain is immediately retained. The blood samples are collected in heparinized tubes and centrifuged within 30 minutes, in order to separate the plasma from the blood cells. The plasma is transferred to 96-well plates and stored at −20° C. until analysis. The brains are divided in half, and each half is placed in a pre-tarred tube and stored at −20° C. until analysis. Prior to the analysis, the brain samples are thawed and 3 mL/g brain tissue of distilled water is added to the tubes. The brain samples are sonicated in an ice bath until the samples are homogenized. Both brain and plasma samples are precipitated with acetonitrile. After centrifugation, the supernatant is diluted with 0.2% formic acid. Analysis is performed on a short reversed-phase HPLC column with rapid gradient elution and MSMS detection using a triple quadrupole instrument with electrospray ionisation and Selected Reaction Monitoring (SRM) acquisition. Liquid-liquid extraction may be used as an alternative sample clean-up. The samples are extracted, by shaking, to an organic solvent after addition of a suitable buffer. An aliquot of the organic layer is transferred to a new vial and evaporated to dryness under a stream of nitrogen. After reconstitution of the residuals the samples are ready for injection onto the HPLC column.

The structures appear in SMILES notation.

T1 sequence (P41594 21-942 isoform P41594-3 limits assumed): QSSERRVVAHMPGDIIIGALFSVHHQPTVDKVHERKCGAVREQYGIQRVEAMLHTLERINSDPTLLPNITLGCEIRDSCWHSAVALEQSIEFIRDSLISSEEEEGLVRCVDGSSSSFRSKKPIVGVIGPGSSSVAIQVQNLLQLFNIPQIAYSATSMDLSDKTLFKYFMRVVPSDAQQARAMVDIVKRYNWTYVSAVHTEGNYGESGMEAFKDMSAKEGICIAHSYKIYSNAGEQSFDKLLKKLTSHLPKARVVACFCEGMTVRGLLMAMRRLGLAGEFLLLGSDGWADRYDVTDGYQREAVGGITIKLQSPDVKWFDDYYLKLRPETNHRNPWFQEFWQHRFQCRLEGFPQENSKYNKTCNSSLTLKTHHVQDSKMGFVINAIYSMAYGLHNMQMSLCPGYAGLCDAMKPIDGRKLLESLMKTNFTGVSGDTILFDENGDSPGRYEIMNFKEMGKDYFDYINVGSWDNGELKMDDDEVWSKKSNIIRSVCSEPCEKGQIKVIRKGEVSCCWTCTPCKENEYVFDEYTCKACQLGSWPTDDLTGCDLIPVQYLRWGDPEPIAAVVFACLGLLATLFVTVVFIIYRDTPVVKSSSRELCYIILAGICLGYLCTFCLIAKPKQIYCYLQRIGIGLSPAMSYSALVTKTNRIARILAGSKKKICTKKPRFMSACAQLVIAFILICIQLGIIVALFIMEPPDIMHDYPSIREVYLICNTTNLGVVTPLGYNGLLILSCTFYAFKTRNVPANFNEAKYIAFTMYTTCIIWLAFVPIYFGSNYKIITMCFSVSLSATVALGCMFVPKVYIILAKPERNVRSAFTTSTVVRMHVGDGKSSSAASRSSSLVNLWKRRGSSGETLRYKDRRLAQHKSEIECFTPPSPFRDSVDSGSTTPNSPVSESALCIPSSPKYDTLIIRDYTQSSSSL

With `Cn1c(-c2ccn(C)c(=O)c2)nnc1N1C[C@H]2C[C@H]2[C@@H]1c1cc(-c2cccc(Cl)c2)on1` [Example 13.8, 4-(5-{(1R,2R,5S)-2-[5-(3-Chlorophenyl)isoxazol-3-yl]-3-azabicyclo[3.1.0]hex-3-yl}-4-methyl-4H-1,2,4-triazol-3-yl)-1-methylpyridin-2(1H)-one], the IC50 at human mGluR5d was 0.051 µM.
Still for that read-out and setting: the value for `Cc1cccc(-c2cc([C@H]3C[C@H]4C[C@H]4N3c3nnc(-c4cc[nH]c(=O)n4)n3C)no2)c1` [Example 13.2, 4-(4-Methyl-5-{(1R,3R,5R)-3-[5-(3-methylphenyl)isoxazol-3-yl]-2-azabicyclo[3.1.0]hex-2-yl}-4H-1,2,4-triazol-3-yl)pyrimidin-2(1H)-one] was 0.131 µM; that for `Cc1cccc(-c2cc([C@H]3C[C@H]4C[C@H]4N3c3nnc(-c4cn[nH]c(=O)c4)n3C)no2)c1` [Example 13.3, 5-(4-Methyl-5-{(1R,3R,5R)-3-[5-(3-methylphenyl)isoxazol-3-yl]-2-azabicyclo[3.1.0]hex-2-yl}-4H-1,2,4-triazol-3-yl)pyrimidin-3(2H)-one] was 0.071 µM.
For the compound `Cc1cccc(-c2cc([C@H]3C[C@H]4C[C@H]4N3c3nnc(-c4ccn(C)c(=O)c4)n3C)no2)c1` [Example 13.1, 1-Methyl-4-(4-methyl-5-{(1R,3R,5R)-3-[5-(3-methylphenyl)isoxazol-3-yl]-2-azabicyclo[3.1.0]hex-2-yl}-4H-1,2,4-triazol-3-yl)pyridin-2(1H)-one], at human mGluR5d, the IC50 is 0.073 µM. Further, in data set [1], the Kp turned out to be 0.01.
As to `Cn1c(-c2cn[nH]c(=O)c2)nnc1N1C[C@H]2C[C@H]2[C@@H]1c1cc(-c2cccc(Cl)c2)on1` [Example 13.9, 5-(5-{(1R,2R,5S)-2-[5-(3-Chlorophenyl)isoxazol-3-yl]-3-azabicyclo[3.1.0]hex-3-yl}-4-methyl-4H-1,2,4-triazol-3-yl)pyridazin-3(2H)-one], at human mGluR5d, the IC50 came out at 0.046 µM.
Take `Cn1c(-c2ccc(C(N)=O)cc2)nnc1N1[C@@H](c2cc(-c3cccc(Cl)c3)on2)C[C@H]2C[C@H]21` [Example 13.5, 4-(5-{(1R,3R,5R)-3-[5-(3-Chlorophenyl)isoxazol-3-yl]-2-azabicyclo[3.1.0]hex-2-yl}-4-methyl-4H-1,2,4-triazol-3-yl)benzamide]: the IC50 on human mGluR5d was found to be 0.014 µM.
Consider `Cn1c(-c2ccn(C)c(=O)c2)nnc1N1[C@@H](c2cc(-c3cccc(Cl)c3)on2)C[C@H]2C[C@H]21` [Example 13.4, 4-(5-{(1R,3R,5R)-3-[5-(3-Chlorophenyl)isoxazol-3-yl]-2-azabicyclo[3.1.0]hex-2-yl}-4-methyl-4H-1,2,4-triazol-3-yl)-1-methylpyridin-2(1H)-one], for which the IC50 on human mGluR5d turned out to be 0.039 µM. The Kp in data set [1] is less than 0.01.
Consider `Cn1c(-c2cn[nH]c(=O)c2)nnc1N1[C@@H](c2cc(-c3cccc(Cl)c3)on2)C[C@H]2C[C@H]21` [Example 13.6, 5-(5-{(1R,3R,5R)-3-[5-(3-Chlorophenyl)isoxazol-3-yl]-2-azabicyclo[3.1.0]hex-2-yl}-4-methyl-4H-1,2,4-triazol-3-yl)pyridazin-3(2H)-one], for which the IC50 on human mGluR5d stood at 0.032 µM. The Kp in data set [1] is less than 0.01.
